Reference: patent publication US20230245787A1, “METHODS FOR PREDICTING SYNERGISTIC DRUG COMBINATION” (GenomiCare Biotechnology (Shanghai) Co., Ltd, priority 2020, published 2023)

Test system: Hepatocellular Carcinoma (HCC) and Intrahepatic Cholangiocarcinoma (ICC)
Assay: Exhaustive Cox proportional hazards (ECPH) model on real-world survival data of drug combination groups
Format: in vivo, human
Conditions: Cox PH
[1] = Regorafenib x Lenvatinib groups (Contingency Table B)
[2] = Sorafenib x Lenvatinib groups (Contingency Table A)

Text: Then, a novel exhaustive Cox proportional hazards model (ECPH) model is used to evaluate all possible drug combinations with respect to their efficacy in prolonging patients' lives. In terms of efficacy, there can be three types of drug interaction: additive, synergistic, and antagonistic.
The approach used in the present disclosure further extends the CPH model. In an example process, drugs used for fewer than one treatment cycle or the number of patients in any variables less than 15 were removed. Then, a 2×2 contingency table is set up, in which rows are defined by every unique genomic or clinical variable, and the columns are defined by drug variable (See Table 3 as an illustration). Then the CPH model (as described in “The Robust Inference for the Cox Proportional Hazards Model”, D. Y. Lin &L. J. Wei, Journal of the Am. Stat. Assoc., pp. 1074-1078, 1989) is used to calculate independent risk factors, cumulative hazard-ratios, and p-values for each drug combination table.
Additive combination definition: The HR score of the drug A+ plus factor B+ group is between the other two treatment groups (A+B− and A−B+). The P-value of the drug A+ plus factor B+ group is not statistically significant compared with the other two treatment groups (A+B− and A−B+).
Synergistic combination definition: The HR score of the drug A+ plus factor B+ group is smaller than the other two treatment groups (A+B− and A−B+). […] The drug A+ plus factor B+ group is the statistically independent variable of the other two treatment groups (A+B− and A−B+).
In this example, data were collected and analyzed in the following steps:
(2) Real-world clinical electronic health records (EHRs) collection, clinical data entry and l long-term follow-up, according to the flowchart shown in FIG. 4.
(3) Comprehensive genomic data is matched with real-world treatment patterns and clinical outcomes feature database and analysis workflow, as shown in FIG. 5.
(4) A large one-hot encoding matrix(˜10,000*10,000) of comprehensive genomic and clinical factors. Based on the one-hot encoding matrix, the combined effects of all factors such as: age, gender, gene mutation, and drug treatment can be obtained.
(5) Applying exhaustive Cox proportional hazards model (ECPH) model
a. Patients are divided into four categories based on the combined use of the two drugs. For an example: Patients treated with Lenvatinib and without Sorafenib were defined as the Lenvatinib treatment group. Patients treated with Sorafenib and without Lenvatinib were defined as the Sorafenib treatment group. Patients treated with Sorafenib and Lenvatinib were defined as the Sorafenib-Lenvatinib treatment group. Patients treated without Sorafenib and Lenvatinib were defined as Sorafenib-Lenvatinib free treatment group.
b. 2×2 contingency tables were calculated for all possible drug combinations pairs: Millions of possible combinations of Lenvatinib.
c. Cox PH model (The Robust Inference for the Cox Proportional Hazards Model D. Y. Lin &L. J. Wei Pages 1074-1078) was used to calculate independent risk factors, cumulative hazard-ratios, and p-values for each drug combination table. […] It can be estimated as follow: h(t)=h0(t)×exp(b1x1+b2x2+ . . . +bpxp) where, • t represents the survival time. • h(t) is the hazard function determined by a set of p covariates (x1, x2, . . . , xp) • the coefficients (b1, b2, . . . , bp) measure the impact (i.e., the effect size) of covariates. • the term h0 is referred to the baseline hazard.

Row | Compound | HR (hazard ratio) (PD-1/PD-L1 x Lenvatinib groups (Contingency Table C), Chinese HCC and ICC patients) | HR (hazard ratio) [1] | HR (hazard ratio) [2]
1 | COc1cc2nccc(Oc3ccc(NC(=O)NC4CC4)c(Cl)c3)c2cc1C(N)=O [Lenvatinib] | 1.00 | 0.74 | 0.56
2 | CNC(=O)c1cc(Oc2ccc(NC(=O)Nc3ccc(Cl)c(C(F)(F)F)c3)c(F)c2)ccn1 [Regorafenib] | – | 0.99 | –
3 | CNC(=O)c1cc(Oc2ccc(NC(=O)Nc3ccc(Cl)c(C(F)(F)F)c3)cc2)ccn1 [Sorafenib] | – | – | 0.76
